Measurements reported in patent US6740642B2, “Macrolides with antibacterial activity” (BAsilea Parmaceutica AG, priority 2000, dated 2004).
Values after ≈ are worked out from the molar mass of the structure shown.

Key:
Experiment in all cases: MIC, standard microdilution
S. aureus 1086 = type: cell-based, Staphylococcus aureus; conditions: for MIC: Staphylococcus aureus, read-out: minimum inhibitory concentration (MIC)
Description: (§1) The antibacterial activities of the compounds have been determined by standard microdilution technique (National Committee for Clinical Laboratory Standards. 1997. Methods for dilution antimicrobial susceptibility tests for bacteria that grow aerobically, 4th edition. Approved standard M7-A4. National Committee for Clinical Laboratory Standards, Wayne, Pa.).

S. aureus 745 = type: cell-based, Staphylococcus aureus; conditions: for MIC: Staphylococcus aureus, read-out: minimum inhibitory concentration (MIC)
Description: as §1

S. aureus ATCC29213 = type: cell-based, Staphylococcus aureus; conditions: for MIC: Staphylococcus aureus, read-out: minimum inhibitory concentration (MIC)
Description: as §1

E. coli ATCC25922 = type: cell-based; conditions: for MIC: Escherichia coli, read-out: minimum inhibitory concentration (MIC)
Description: as §1

[1] = tested on: P. aeruginosa ATCC27853 (+Ery. 32 μg/ml); type: cell-based
Description: as §1

St. pneumoniae 1/1 = type: cell-based, Streptococcus pneumoniae; conditions: for MIC: Streptococcus pneumoniae, read-out: minimum inhibitory concentration (MIC)
Description: as §1

St. pneumoniae 1/4 = type: cell-based, Streptococcus pneumoniae; conditions: for MIC: Streptococcus pneumoniae, read-out: minimum inhibitory concentration (MIC)
Description: as §1

St. pneumoniae 12288 = type: cell-based, Streptococcus pneumoniae; conditions: for MIC: Streptococcus pneumoniae, read-out: minimum inhibitory concentration (MIC)
Description: as §1

St. pneumoniae SL199T = type: cell-based, Streptococcus pneumoniae; conditions: for MIC: Streptococcus pneumoniae, read-out: minimum inhibitory concentration (MIC)
Description: as §1

Row | minimum inhibitory concentration (MIC) (S. aureus 1086) | minimum inhibitory concentration (MIC) (S. aureus 745) | minimum inhibitory concentration (MIC) (S. aureus ATCC29213) | minimum inhibitory concentration (MIC) (E. coli ATCC25922) | minimum inhibitory concentration (MIC) [1] | minimum inhibitory concentration (MIC) (St. pneumoniae 1/1) | minimum inhibitory concentration (MIC) (St. pneumoniae 1/4) | minimum inhibitory concentration (MIC) (St. pneumoniae 12288) | minimum inhibitory concentration (MIC) (St. pneumoniae SL199T) | MIC (S. aureus 1086) | MIC (S. aureus 745) | MIC (S. aureus ATCC29213) | MIC (E. coli ATCC25922) | MIC (St. pneumoniae 1/1) | MIC (St. pneumoniae 1/4) | MIC (St. pneumoniae 12288) | MIC (St. pneumoniae SL199T) | Compound
1 | 0.5 µg/mL (≈ 0.76 µM) | >16 µg/mL | 0.5 µg/mL (≈ 0.76 µM) | >16 µg/mL | >16 µg/mL | <=0.5 μg/ml | 32 µg/mL (≈ 48.6 µM) | >32 µg/mL | 16 µg/mL (≈ 24.3 µM) |  |  |  |  |  |  |  |  | CC[C@H]1OC(=O)[C@H](C)C(=O)[C@H](C)[C@@H](O[C@@H]2O[C@H](C)C[C@H](N(C)C)[C@H]2O)[C@](C)(OC)C[C@@H](C)C(=O)[C@H](C)[C@H]2[C@H](SC)C(=O)O[C@@]21C [Compound I-5, (3S,3aR,4R,6R,8R,9R,10R,12R,15R,15aS)-15-Ethyloctahydro-8-methoxy-4,6,8,10,12,15a-hexamethyl-3-[methylthio]-9-[[3,4,6-trideoxy-3-(dimethylamino)-β-D-xylo-hexopyranosyl]oxy]-2H-furo[2,3-c]oxacydotetradecin-2,5,11,13(3H,6H,12H)-tetrone]
2 |  |  |  |  | >16 µg/mL |  |  |  |  | ≤ 0.12 µg/mL | > 16 µg/mL | ≤ 0.12 µg/mL | > 16 µg/mL | ≤ 0.12 µg/mL | ≤ 0.12 µg/mL | 0.5 µg/mL (≈ 0.613 µM) | 0.5 µg/mL (≈ 0.613 µM) | CC[C@H]1OC(=O)[C@H](C)C(=O)[C@H](C)[C@@H](O[C@@H]2O[C@H](C)C[C@H](N(C)C)[C@H]2O)[C@](C)(OC)C[C@@H](C)C(=O)[C@H](C)[C@H]2[C@H](SCCn3ccc(-c4cccnc4)n3)C(=O)O[C@@]21C [Compound I-16, (3S,3aR,4R,6R,8R,9R,10R,12R,15R,15aS)-15-Ethyloctahydro-8-methoxy-4,6,8,10,12,15a-hexamethyl-3-[[2-[3-(3-pyridinyl)-1H-pyrazol-1-yl]-ethyl]thio]-9-[[3,4,6-trideoxy-3-(dimethylamino)-β-D-xylo-hexopyranosyl]oxy]-2H-furo[2,3-c]oxacyclotetradecin-2,5,11,13(3H,6H,12H)-tetrone]
3 |  |  |  |  | >16 µg/mL |  |  |  |  | 0.5 µg/mL (≈ 0.817 µM) | > 16 µg/mL | 0.5 µg/mL (≈ 0.817 µM) | > 16 µg/mL | ≤ 0.12 µg/mL | 16 µg/mL (≈ 26.2 µM) | > 16 µg/mL | > 16 µg/mL | CC[C@H]1OC(=O)[C@H](C)C(=O)[C@H](C)[C@@H](O[C@@H]2O[C@H](C)C[C@H](N(C)C)[C@H]2O)[C@](C)(OC)C[C@@H](C)C(=O)[C@H](C)[C@H]2CC(=O)O[C@@]21C [Compound I-25, (3aR,4R,6R,8R,9R,10R,12R,15R,15aS)-15-Ethyloctahydro-8-methoxy-4,6,8,10,12,15a-hexamethyl-9-[[3,4,6-trideoxy-3-(dimethylamino)-β-D-xylo-hexopyranosyl]oxy]-2H-furo[2,3-c]oxacyclotetradecin-2,5,11,13 (3H,6H,12H)-tetrone]
4 |  |  |  |  | >16 µg/mL |  |  |  |  | ≤ 0.25 µg/mL | > 16 µg/mL | ≤ 0.25 µg/mL | > 16 µg/mL | ≤ 0.5 µg/mL | 8 µg/mL (≈ 12.6 µM) | > 32 µg/mL | 32 µg/mL (≈ 50.3 µM) | CC[C@H]1OC(=O)[C@H](C)C(=O)[C@H](C)[C@@H](O[C@@H]2O[C@H](C)C[C@H](N(C)C)[C@H]2O)[C@](C)(OC)C[C@@H](C)C(=O)[C@H](C)[C@H]2[C@H](C#N)C(=O)O[C@@]21C [Compound I-23, (3R,3aS,4R,6R,8R,9R,10R,12R,15R,15aS)-15-Ethyltetradecahydro-8-methoxy-4,6,8,10,12,15a-hexamethyl-2,5,11,13-tetraoxo-9-[[3,4,6-trideoxy-3-(dimethylamino)-β-D-xylo-hexopyranosyl]oxy]-2H-furo[2,3-c]oxacyclotetradecin-3-carbonitrile]
